From ChEMBL document CHEMBL5291721, “A preclinical secondary pharmacology resource illuminates target-adverse drug reaction associations of marketed drugs” (Nat Commun, 2023)
Where a SMILES comes first, the peptide text is derived from it.

Key:
[1] = target: T1, Corticotropin-releasing factor receptor 2 (Homo sapiens, UniProt Q13324)
T1 sequence (Q13324 whole entry): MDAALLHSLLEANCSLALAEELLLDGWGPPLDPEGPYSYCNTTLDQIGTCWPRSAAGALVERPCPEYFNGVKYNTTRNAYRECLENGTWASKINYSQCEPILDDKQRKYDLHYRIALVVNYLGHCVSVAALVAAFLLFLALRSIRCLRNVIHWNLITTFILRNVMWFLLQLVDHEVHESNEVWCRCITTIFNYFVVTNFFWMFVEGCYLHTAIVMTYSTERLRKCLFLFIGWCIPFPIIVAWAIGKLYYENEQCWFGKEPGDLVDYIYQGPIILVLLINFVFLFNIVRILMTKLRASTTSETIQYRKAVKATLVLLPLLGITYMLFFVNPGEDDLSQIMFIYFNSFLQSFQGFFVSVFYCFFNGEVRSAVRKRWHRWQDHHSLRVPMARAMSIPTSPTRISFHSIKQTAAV

[2] = target: Estrogen receptor beta (Homo sapiens, UniProt Q92731)
Sequence of Estrogen receptor beta (Q92731 whole entry): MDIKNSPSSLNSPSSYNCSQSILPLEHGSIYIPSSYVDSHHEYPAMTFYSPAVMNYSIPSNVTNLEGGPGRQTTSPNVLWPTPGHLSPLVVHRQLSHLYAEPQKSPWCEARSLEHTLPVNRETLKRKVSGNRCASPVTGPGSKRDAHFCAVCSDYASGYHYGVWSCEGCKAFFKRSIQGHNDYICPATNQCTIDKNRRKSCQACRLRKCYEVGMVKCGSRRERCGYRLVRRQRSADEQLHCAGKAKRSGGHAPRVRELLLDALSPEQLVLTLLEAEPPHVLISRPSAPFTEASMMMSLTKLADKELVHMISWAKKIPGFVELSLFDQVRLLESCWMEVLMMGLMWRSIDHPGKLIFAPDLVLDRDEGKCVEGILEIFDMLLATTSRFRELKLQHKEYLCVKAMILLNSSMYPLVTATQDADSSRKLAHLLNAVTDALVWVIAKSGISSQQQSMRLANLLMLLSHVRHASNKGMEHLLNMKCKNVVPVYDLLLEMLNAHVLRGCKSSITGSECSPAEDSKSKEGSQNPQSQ

[3] = target: Glucagon receptor (Homo sapiens, UniProt P47871)
Sequence of Glucagon receptor (P47871 whole entry): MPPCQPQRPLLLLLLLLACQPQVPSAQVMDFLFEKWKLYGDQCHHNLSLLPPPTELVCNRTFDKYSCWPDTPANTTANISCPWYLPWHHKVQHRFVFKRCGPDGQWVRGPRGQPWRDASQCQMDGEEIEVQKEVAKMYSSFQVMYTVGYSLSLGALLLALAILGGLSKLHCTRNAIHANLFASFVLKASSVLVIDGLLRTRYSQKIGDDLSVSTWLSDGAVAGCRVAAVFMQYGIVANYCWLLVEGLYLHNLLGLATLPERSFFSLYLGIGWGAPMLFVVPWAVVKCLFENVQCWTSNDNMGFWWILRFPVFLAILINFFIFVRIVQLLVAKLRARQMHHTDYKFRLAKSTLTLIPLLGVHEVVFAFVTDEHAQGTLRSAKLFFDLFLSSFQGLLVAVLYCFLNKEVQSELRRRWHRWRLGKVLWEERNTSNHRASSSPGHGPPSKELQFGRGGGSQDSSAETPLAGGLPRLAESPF

[4] = target: Histamine H2 receptor (Homo sapiens, UniProt P25021)
Sequence of Histamine H2 receptor (P25021 whole entry): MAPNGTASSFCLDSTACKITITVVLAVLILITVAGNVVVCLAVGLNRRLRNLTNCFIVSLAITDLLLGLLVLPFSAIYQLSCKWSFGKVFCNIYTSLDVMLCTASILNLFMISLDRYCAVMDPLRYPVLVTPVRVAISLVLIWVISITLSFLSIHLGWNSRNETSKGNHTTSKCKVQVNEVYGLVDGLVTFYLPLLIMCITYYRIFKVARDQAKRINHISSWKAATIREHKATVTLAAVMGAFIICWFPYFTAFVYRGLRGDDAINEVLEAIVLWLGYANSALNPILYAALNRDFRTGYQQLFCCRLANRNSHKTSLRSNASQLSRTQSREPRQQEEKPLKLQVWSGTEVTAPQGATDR

[5] = target: T2, Neuropeptide Y receptor type 2 (Homo sapiens, UniProt P49146)
T2 sequence (P49146 whole entry): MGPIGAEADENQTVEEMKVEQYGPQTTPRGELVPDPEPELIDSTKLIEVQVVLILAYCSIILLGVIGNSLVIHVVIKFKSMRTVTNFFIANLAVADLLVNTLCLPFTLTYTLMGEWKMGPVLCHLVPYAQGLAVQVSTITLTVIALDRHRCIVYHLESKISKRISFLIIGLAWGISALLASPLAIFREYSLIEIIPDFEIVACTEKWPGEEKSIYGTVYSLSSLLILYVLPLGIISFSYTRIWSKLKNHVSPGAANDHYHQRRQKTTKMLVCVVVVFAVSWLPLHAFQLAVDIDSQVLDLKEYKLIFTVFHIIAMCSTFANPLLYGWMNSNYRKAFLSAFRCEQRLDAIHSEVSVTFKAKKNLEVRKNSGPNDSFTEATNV

[6] = target: T3, Alpha-2A adrenergic receptor (Homo sapiens, UniProt P08913)
T3 sequence (P08913 whole entry): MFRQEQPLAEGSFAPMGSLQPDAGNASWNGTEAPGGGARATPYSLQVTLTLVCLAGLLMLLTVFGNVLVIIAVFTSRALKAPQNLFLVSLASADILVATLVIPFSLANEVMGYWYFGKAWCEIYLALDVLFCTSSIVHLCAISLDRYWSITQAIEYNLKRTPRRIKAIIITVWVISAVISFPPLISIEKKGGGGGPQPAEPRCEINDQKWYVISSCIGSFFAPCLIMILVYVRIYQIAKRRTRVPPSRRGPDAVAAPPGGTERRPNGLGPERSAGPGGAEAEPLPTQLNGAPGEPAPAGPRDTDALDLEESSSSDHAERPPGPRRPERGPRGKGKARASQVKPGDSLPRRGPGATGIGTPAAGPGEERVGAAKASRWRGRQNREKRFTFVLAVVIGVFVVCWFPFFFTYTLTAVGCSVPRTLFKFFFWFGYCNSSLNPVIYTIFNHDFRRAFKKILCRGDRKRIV

[7] = target: T4, Muscarinic acetylcholine receptor M2 (Homo sapiens, UniProt P08172)
T4 sequence (P08172 whole entry): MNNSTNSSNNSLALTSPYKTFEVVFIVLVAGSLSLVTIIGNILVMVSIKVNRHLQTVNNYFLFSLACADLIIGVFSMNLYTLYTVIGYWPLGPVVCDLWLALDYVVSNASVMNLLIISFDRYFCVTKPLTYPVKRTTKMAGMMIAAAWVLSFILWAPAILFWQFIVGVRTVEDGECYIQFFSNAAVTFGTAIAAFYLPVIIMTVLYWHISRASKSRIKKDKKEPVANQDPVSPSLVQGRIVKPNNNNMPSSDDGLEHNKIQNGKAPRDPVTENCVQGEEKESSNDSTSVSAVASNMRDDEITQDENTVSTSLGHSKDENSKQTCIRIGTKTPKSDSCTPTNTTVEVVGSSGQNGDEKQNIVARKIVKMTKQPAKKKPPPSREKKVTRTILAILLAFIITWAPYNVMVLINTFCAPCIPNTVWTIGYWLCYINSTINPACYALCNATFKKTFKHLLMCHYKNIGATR

[8] = target: T5, Androgen receptor (Rattus norvegicus, UniProt P15207); assay type: functional
T5 sequence (P15207 whole entry): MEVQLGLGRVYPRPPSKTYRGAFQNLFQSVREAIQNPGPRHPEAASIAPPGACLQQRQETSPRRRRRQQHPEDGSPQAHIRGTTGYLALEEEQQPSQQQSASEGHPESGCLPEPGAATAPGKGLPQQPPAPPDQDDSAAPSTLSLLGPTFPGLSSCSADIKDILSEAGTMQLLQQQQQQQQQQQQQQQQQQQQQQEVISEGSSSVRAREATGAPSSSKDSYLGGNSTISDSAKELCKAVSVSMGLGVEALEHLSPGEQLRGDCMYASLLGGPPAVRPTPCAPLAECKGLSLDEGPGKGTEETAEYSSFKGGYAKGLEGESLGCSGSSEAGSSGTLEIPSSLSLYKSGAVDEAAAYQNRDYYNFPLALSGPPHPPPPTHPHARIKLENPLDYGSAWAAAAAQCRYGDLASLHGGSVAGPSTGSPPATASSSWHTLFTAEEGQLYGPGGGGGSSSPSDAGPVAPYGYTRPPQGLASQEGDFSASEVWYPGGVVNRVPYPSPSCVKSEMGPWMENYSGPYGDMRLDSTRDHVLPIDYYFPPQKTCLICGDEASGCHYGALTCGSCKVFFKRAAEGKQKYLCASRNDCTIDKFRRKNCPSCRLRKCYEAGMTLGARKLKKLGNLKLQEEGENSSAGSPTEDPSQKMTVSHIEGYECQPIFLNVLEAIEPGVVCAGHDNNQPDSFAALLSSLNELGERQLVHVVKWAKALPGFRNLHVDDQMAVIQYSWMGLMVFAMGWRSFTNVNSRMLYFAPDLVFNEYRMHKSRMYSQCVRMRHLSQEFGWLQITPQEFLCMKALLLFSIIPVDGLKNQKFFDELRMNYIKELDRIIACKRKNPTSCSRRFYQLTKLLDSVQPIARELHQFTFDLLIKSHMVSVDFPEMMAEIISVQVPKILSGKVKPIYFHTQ

[9] = target: Gamma-aminobutyric acid receptor subunit alpha-1/alpha-2/beta-2/gamma-2 (Homo sapiens, UniProt P14867+P18507+P47869+P47870); assay type: functional, cell-based
Sequence of Gamma-aminobutyric acid receptor subunit alpha-1/alpha-2/beta-2/gamma-2 (P14867 whole entry): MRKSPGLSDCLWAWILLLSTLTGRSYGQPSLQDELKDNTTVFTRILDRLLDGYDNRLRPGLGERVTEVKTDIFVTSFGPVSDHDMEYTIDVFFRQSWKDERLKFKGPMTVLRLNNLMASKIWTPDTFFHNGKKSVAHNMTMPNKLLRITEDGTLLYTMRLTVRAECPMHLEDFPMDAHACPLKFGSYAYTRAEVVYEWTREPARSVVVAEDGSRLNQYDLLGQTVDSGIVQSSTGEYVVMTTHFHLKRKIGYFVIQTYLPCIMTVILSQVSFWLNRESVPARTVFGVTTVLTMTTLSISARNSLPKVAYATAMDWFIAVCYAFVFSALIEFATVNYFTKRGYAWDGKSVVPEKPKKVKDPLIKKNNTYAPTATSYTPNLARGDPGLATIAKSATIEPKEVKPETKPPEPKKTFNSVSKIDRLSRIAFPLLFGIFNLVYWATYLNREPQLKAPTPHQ
Sequence of Gamma-aminobutyric acid receptor subunit alpha-1/alpha-2/beta-2/gamma-2 (P47870 whole entry): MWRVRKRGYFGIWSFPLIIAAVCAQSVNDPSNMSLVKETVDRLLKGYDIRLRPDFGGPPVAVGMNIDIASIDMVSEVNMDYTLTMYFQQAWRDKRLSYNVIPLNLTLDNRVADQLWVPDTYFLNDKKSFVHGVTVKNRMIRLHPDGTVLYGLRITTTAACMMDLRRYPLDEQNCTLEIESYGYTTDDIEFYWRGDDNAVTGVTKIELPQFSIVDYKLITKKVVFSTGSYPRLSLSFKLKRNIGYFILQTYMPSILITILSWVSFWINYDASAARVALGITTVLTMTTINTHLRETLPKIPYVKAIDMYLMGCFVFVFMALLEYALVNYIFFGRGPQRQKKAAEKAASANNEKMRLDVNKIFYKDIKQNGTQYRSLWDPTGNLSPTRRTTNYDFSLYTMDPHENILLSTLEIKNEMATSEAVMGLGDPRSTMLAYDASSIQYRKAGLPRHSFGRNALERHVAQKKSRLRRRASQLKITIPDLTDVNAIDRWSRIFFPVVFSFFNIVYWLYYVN
Sequence of Gamma-aminobutyric acid receptor subunit alpha-1/alpha-2/beta-2/gamma-2 (P18507 whole entry): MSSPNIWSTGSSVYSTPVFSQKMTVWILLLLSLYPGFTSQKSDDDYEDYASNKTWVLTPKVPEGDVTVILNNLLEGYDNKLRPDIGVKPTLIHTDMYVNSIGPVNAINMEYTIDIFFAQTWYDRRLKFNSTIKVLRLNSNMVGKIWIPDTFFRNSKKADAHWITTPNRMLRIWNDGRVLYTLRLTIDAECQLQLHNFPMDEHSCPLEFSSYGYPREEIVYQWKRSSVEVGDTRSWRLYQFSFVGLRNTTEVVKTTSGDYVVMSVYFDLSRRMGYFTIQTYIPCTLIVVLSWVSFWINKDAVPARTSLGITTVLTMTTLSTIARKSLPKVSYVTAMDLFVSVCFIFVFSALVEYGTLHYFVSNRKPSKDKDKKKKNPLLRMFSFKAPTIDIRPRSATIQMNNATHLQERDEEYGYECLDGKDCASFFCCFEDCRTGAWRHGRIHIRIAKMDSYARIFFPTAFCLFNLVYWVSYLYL
Sequence of Gamma-aminobutyric acid receptor subunit alpha-1/alpha-2/beta-2/gamma-2 (P47869 whole entry): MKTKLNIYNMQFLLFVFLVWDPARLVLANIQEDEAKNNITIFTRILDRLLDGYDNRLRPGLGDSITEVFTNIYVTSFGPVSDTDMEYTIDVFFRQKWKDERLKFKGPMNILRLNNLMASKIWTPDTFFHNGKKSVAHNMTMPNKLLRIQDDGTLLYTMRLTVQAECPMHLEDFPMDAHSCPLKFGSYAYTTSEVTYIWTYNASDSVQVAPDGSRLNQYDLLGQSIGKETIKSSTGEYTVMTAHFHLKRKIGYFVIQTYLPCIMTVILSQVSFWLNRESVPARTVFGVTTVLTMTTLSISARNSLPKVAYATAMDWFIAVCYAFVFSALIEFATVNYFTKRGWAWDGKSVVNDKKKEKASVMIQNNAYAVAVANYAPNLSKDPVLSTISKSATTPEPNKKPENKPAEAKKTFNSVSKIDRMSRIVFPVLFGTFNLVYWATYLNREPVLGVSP
Note: assay procedure not described here.

Compound	AC50 [1] [µM]	AC50 [3] [µM]	AC50 [4] [µM]	AC50 [5] [µM]	AC50 [6] [µM]	AC50 [7] [µM]	AC50 [8] [µM]	AC50 [9] [µM]	other results
CC1=C(CC(=O)O)c2cc(F)ccc2/C1=C\c1ccc([S+](C)[O-])cc1 (centres undefined)	> 30	> 30	> 10	> 30	> 10	> 10			AC50 [2]: > 30 µM
O=C(O)c1ccc2nc(-c3cc(Cl)cc(Cl)c3)oc2c1							> 30		
NS(=O)(=O)c1ccc(N2CCCCS2(=O)=O)cc1							> 30	> 30	
O=C(O[C@H]1C[N+]2(CCCOc3ccccc3)CCC1CC2)C(O)(c1cccs1)c1cccs1 [ACLIDINIUM BROMIDE]	> 30	> 30	> 10	> 30	2.27				
C[C@H](N)C(=O)N[C@@H](CCC(N)=O)C(=O)O [ALANYL GLUTAMINE] (H-Ala-Gln-OH)							> 30		
Cc1nnc2n1-c1ccc(Cl)cc1C(c1ccccc1)=NC2 [ALPRAZOLAM]	> 30	> 30	> 10	> 30	> 10	> 10			AC50 [2]: > 30 µM
COc1ccc(-n2nc(C(N)=O)c3c2C(=O)N(c2ccc(N4CCCCC4=O)cc2)CC3)cc1 [APIXABAN]							> 30	> 30	
CCN(CC)CCCN(c1ccccc1)C1Cc2ccccc2C1 [APRINDINE]								> 30	
CC(NC(C)(C)C)C(=O)c1cccc(Cl)c1 (centres undefined) [BUPROPION]	> 30	> 30	> 10	> 30	> 10	> 10			AC50 [2]: > 30 µM
CC(=O)OCC1=C(C(=O)O)N2C(=O)[C@@H](NC(=O)Cc3cccs3)[C@H]2SC1 [CEPHALOTHIN]								> 30	
CC1=C(C(=O)O)N2C(=O)[C@@H](NC(=O)[C@H](N)C3=CCC=CC3)[C@H]2SC1 [CEPHRADINE]								> 30	
COc1ccc(C(Cl)=C(c2ccc(OC)cc2)c2ccc(OC)cc2)cc1 [CHLOROTRIANISENE]								> 30	
Oc1cc(O)c2c(c1)O[C@H](c1ccc(O)c(O)c1)[C@@H](O)C2 [CIANIDANOL]	> 30	> 30	> 10	> 30	> 10	> 10			AC50 [2]: > 30 µM
CCCO[C@H]1[C@@H]([C@@H](COCc2ccc(Cl)cc2)OCc2ccc(Cl)cc2)OC(OCC)[C@@H]1O (some centres undefined) [CLOBENOSIDE]							> 30		
O=C1CN=C(c2ccccc2Cl)c2cc([N+](=O)[O-])ccc2N1 [CLONAZEPAM]	> 30	> 30	> 10	> 30	> 10	> 10			AC50 [2]: > 30 µM
CN(C)CCOC(=O)C(c1ccccc1)C1(O)CCCC1 (centres undefined) [CYCLOPENTOLATE]						0.624			
CCCCCCOC(=O)NC(=N)c1ccc(NCc2nc3cc(C(=O)N(CCC(=O)OCC)c4ccccn4)ccc3n2C)cc1 [DABIGATRAN ETEXILATE]								> 30	
CC(=O)Oc1cccc2c1C(=O)c1c(OC(C)=O)cc(C(=O)O)cc1C2=O [DIACEREIN]							> 30		
